In patent US10065967B2, “Compounds that are ERK inhibitors” (Merck Sharp & Dohme Corp., priority 2013, dated 2018):

What follows are molecules tested against Active Human ERK2 (hERK2) (Homo sapiens (Human), UniProt P28482) (assay: Active Human ERK2 (hERK2) Activity Assay (IMAP-FP)). Settings: phosphorylated active hERK2 0.5 nM, 30 μM ATP, 10 point titration, read-out: ERK 2 Human average IC50.
Format: biochemical
Method: Assays Active Human ERK2 (hERK2) Activity Assay:
Activated ERK2 activity was determined in an IMAP-FP assay (Molecular Devices). Using this assay format, the potency (IC50) of each compound was determined from a 10 point (1:3 serial dilution, 3 μM starting compound concentration) titration curve using the following outlined procedure. […] Following a 15 minute compound & enzyme incubation, each reaction was initiated by the addition of 10 μL kinase buffer containing 2.45 μM ERK2 IMAP substrate peptides (2.25 μM-unlabeled peptide and 200 nM-labeled peptide, and 75 μM ATP. The final reaction in each well of 25 μL consists of 0.5 nM hERK2, 900 nM unlabeled peptide, 80 nM labeled-peptide, and 30 μM ATP. Phosphorylation reactions were allowed to proceed for 60 minutes and were immediately quenched by the addition of 60 μL IMAP detection beads (1:1000 dilutions) in IMAP binding buffer (Molecular Devices) with 24 mM NaCl. Plates were read on EnVision reader after 60 minutes binding equilibration using Fluorescence Polarization protocol (Perkin Elmer).

Sequence of Active Human ERK2 (hERK2) (P28482 whole entry): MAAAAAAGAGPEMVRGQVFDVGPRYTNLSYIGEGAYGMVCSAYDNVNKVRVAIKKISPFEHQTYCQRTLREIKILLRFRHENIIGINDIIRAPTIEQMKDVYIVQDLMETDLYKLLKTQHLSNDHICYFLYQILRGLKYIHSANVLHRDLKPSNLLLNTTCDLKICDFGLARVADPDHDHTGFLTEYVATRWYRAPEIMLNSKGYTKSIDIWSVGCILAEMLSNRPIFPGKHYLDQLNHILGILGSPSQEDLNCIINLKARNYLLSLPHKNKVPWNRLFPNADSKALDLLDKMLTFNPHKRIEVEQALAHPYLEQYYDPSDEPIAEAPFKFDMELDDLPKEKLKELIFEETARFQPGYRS

Row | IC50 [nM] | SMILES
1 | 10 | C[C@H](c1ccccc1)N1Cc2cc3c(OC4CCOCC4)n[nH]c3cc2NC1=O [Example 39, (R)-6-(1-phenylethyl)-3-((tetrahydro-2H-pyran-4-yl)oxy)-5,6-dihydro-1H-pyrazolo[4,3-g]quinazolin-7(8H)-one]
2 | 24 | C[C@H](c1ccccc1)N1Cc2cc3c(C4CC4)n[nH]c3cc2NC1=O [Example 40, (R)-3-cyclopropyl-6-(1-phenylethyl)-5,6-dihydro-1H-pyrazolo[4,3-g]quinazolin-7(8H)-one]
3 | 0.3 | C[C@H](c1ccccc1)N1Cc2cc3c(-c4ccnc(F)c4)n[nH]c3cc2NC1=O [Example 41, (R)-3-(2-fluoropyridin-4-yl)-6-(1-phenylethyl)-5,6-dihydro-1H-pyrazolo[4,3-g]quinazolin-7(8H)-one]
4 | 9 | C[C@H](c1ccccc1)N1Cc2cc3c(N4CCOCC4)n[nH]c3cc2NC1=O [Example 42, (R)-3-morpholino-6-(1-phenylethyl)-5,6-dihydro-1H-pyrazolo[4,3-g]quinazolin-7(8H)-one]
5 | 48 | C[C@H](c1ccccc1)N1Cc2cc3c(I)n[nH]c3cc2NC1=O [Example 43, (R)-3-iodo-6-(1-phenylethyl)-5,6-dihydro-1H-pyrazolo[4,3-g]quinazolin-7(8H)-one]
6 | 24 | C[C@H](c1ccccc1)N1Cc2cc3c(N4CCc5ncsc5C4)n[nH]c3cc2NC1=O [Example 47, (R)-3-(6,7-dihydrothiazolo[5,4-c]pyridin-5(4H)-yl)-6-(1-phenylethyl)-5,6-dihydro-1H-pyrazolo[4,3-g]quinazolin-7(8H)-one]

Each molecule was assayed against Active Mouse ERK2 (mERK2) (Mus musculus (Mouse), UniProt P63085) (assay: Active Mouse ERK2 (mERK2) Activity Assay (IMAP-FP)). Settings: phosphorylated active mERK2 0.19 nM, 30 uM ATP, 10 point titration, read-out: ERK 2 MAPK1 Mouse IC50.
Sequence of Active Mouse ERK2 (mERK2) (P63085 whole entry): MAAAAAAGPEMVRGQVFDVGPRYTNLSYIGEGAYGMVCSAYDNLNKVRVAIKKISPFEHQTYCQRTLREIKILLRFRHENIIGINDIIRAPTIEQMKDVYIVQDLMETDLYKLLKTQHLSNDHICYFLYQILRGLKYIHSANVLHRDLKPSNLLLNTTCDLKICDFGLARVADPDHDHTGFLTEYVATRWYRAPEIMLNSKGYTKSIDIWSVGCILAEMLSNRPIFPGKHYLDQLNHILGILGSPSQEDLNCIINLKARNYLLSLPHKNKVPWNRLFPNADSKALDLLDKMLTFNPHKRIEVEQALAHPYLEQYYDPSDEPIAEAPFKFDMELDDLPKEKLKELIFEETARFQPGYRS
Format: biochemical
Method: Active Mouse ERK2 (mERK2) Activity Assay:
Activated ERK2 activity was determined in an IMAP-FP assay (Molecular Devices). Using this assay format, the potency (IC50) of each compound was determined from a 10 point (1:3 serial dilution, 3 μM starting compound concentration) titration curve using the following outlined procedure. To each well of a black Corning 384-well plate (Corning Catalog #3575), 7.5 nL of compound (3333 fold dilution in final assay volume of 25 μL) was dispensed, followed by the addition of 15 μL of kinase buffer (tween containing kinase buffer, Molecular Devices) containing […] (0.316 nM) of phosphorylated active mERK2 enzyme. Following a 15 minute compound & enzyme incubation, each reaction was initiated by the addition of 10 μL kinase buffer containing 2.45 μM ERK2 IMAP substrate peptides (2.25 μM-unlabeled peptide and 200 nM-labeled peptide, and 75 μM ATP. The final reaction in each well of 25 μL consists of 0.19 nM mERK2, 900 nM unlabeled peptide, 80 nM labeled-peptide, and 30 uM ATP. Phosphorylation reactions were allowed to proceed for 45 minutes and were immediately quenched by the addition of 60 μL IMAP detection beads (1:1000 dilutions) in IMAP binding buffer (Molecular Devices) with 24 mM NaCl. Plates were read on EnVision reader after 60 minutes binding equilibration using Fluorescence Polarization protocol (Perkin Elmer).

Row | IC50 [nM] | SMILES
7 | 0.4 | Cc1cc(-c2n[nH]c3cc4[nH]c(=O)ccc4cc23)ccn1 [Example 1, 3-(2-methylpyridin-4-yl)-1,8-dihydro-7H-pyrazolo[4,3-g]quinolin-7-one]
8 | 0.2 | Cc1cc(-c2n[nH]c3cc4[nH]c(=O)c(Br)cc4cc23)ccn1 [Example 2, 6-bromo-3-(2-methylpyridin-4-yl)-1,8-dihydro-7H-pyrazolo[4,3-g]quinolin-7-one]
9 | 0.2 | Cc1cc(-c2n[nH]c3cc4[nH]c(=O)c(Cc5ccccc5)cc4cc23)ccn1 [Example 3, 6-benzyl-3-(2-methylpyridin-4-yl)-1,8-dihydro-7H-pyrazolo[4,3-g]quinolin-7-one]
